According to patent publication US11021444B2, “Antiviral compounds” (priority 2013, dated 2021):
Read-outs that look alike come from different tables or passages of the source.

How the values were obtained:
[1] = test system: Respiratory Syncytial Virus (RSV) long strain; experiment: microbe, parasite or virus in culture; format: cell-based; conditions: Tables A and B list compounds by EC50 band
How it was run: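 CPE-reduction format: viability measured colorimetrically with CCK-8 (450 nm, 630 nm reference) after 3-4 h, following 5-day infection at 37 °C, 5% CO2. Cells were HEp-2; inoculum 100 TCID50/well; duplicate 9-point 1/3 series starting at 100 μM or 1 μM.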

recombinant RSV complex = recombinant RSV complex (Human respiratory syncytial virus A, UniProt P28887); experiment: RSV Polymerase Inhibition Assay; format: biochemical
How it was run: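 Inhibition measured as reduced incorporation of radiolabel into RNA products, detected by scintillation counting. Reactions: recombinant RSV complex (10 nM), RNA oligonucleotides, Tris-HCl pH 7.5, 6 mM MgCl2, inhibitor titration, 2 h at 30 °C, EDTA stop.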

RSV replicon = experiment: microbe, parasite or virus in culture; format: cell-based; conditions: read-out: EC50, the concentration of the drug required for reducing RSV replicon RNA by 50%
[2] = human respiratory syncytial virus, HEp-2, 120 h, read-out: 50% effective concentration (EC50), HEp-2 cells infected with RSV long strain, 5 days, CCK-8 readout
[3] = human respiratory syncytial virus

Sequence of recombinant RSV complex (P28887 whole entry): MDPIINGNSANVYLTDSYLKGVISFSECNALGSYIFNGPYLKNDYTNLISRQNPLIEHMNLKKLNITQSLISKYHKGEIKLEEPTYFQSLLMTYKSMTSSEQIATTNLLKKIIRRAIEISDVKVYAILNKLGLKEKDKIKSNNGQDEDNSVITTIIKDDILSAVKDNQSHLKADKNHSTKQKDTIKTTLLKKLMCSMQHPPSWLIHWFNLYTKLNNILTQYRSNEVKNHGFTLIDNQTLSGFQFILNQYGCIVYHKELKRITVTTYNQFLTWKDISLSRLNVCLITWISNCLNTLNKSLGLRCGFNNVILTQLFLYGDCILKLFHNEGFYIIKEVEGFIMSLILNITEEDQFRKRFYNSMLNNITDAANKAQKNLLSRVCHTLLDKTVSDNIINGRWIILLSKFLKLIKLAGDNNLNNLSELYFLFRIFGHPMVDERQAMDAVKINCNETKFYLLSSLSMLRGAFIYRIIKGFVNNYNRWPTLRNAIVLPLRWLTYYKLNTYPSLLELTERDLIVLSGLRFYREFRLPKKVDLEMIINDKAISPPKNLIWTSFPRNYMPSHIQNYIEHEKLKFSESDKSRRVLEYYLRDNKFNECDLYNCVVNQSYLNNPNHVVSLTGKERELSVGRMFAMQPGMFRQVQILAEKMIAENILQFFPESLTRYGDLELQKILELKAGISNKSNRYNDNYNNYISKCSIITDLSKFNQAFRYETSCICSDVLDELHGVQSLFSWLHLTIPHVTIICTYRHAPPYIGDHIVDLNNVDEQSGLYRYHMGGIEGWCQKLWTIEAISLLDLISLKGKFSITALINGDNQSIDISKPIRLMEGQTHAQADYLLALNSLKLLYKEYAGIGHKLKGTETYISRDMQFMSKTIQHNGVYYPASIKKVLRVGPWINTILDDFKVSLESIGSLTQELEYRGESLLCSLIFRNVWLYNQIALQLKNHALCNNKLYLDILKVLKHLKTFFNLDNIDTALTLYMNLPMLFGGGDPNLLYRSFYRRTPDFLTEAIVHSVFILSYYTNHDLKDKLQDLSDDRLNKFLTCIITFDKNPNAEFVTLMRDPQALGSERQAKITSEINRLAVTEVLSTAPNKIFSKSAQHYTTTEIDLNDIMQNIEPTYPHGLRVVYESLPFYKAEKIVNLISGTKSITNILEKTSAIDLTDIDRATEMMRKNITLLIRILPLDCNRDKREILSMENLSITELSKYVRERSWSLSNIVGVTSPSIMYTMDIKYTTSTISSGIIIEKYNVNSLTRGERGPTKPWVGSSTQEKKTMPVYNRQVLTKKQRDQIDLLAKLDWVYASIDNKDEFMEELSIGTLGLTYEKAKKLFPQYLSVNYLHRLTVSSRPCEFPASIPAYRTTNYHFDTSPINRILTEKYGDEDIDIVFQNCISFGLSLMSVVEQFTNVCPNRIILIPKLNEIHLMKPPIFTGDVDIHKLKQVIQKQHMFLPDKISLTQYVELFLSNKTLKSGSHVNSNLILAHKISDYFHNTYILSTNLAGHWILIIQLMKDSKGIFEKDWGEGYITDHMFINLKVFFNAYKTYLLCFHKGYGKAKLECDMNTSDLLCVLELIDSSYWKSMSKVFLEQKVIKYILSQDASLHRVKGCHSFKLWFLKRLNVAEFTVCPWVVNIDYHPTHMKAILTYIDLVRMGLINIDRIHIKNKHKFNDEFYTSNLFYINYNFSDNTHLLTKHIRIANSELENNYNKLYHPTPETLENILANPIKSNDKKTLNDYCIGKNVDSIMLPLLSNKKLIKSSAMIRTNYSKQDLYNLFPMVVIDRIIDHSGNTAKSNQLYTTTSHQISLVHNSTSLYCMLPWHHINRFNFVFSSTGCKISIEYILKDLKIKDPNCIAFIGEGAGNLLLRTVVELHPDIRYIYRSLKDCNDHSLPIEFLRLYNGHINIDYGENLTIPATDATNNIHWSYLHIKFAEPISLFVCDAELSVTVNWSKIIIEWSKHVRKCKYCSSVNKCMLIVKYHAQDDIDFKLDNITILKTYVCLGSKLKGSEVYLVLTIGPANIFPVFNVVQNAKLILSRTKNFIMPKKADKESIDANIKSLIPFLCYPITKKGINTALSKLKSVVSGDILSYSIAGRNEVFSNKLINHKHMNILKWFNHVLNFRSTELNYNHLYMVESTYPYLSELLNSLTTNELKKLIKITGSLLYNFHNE
Sequence of recombinant RSV complex (P03421 whole entry, further chain): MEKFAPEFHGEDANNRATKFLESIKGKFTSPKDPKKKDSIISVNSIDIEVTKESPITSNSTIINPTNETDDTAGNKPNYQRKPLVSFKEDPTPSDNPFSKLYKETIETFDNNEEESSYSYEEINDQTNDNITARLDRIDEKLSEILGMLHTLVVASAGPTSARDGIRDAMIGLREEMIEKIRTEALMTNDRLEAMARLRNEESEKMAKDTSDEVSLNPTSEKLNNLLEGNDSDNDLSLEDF

| Compound | EC50 [1, 2] | IC50 (recombinant RSV complex) | EC50 (RSV replicon; [3]) | EC50 ([1]; read-out: 50% effective concentration (EC50), HEp-2 cells infected with RSV long strain, 5 days, CCK-8 readout) | IC50 (recombinant RSV complex; read-out: IC50 (compound concentration at which the enzyme-catalyzed rate was reduced by 50%), 10 nM recombinant RSV complex, 2 h at 30° C., Tables E, F and G list compounds by IC50 band) | EC50 (RSV replicon; RSV replicon, 395 HeLa or APC126 cells, value given by membership in Table H / Table I) |
| --- | --- | --- | --- | --- | --- | --- |
| COc1cc(C(=O)NCC(O)(c2cc(C(C)(C)N)cc(-c3ccc(F)c(Cl)c3)n2)C(F)(F)F)ccc1OC1CC1 (single isomer, unassigned) [Compound 272] | < 1 µM | < 1 µM | < 1 µM |  |  |  |
| COc1cc(C(=O)NCC(O)(Cn2cccn2)c2ccc(OC)c(-c3ccc(F)c(Cl)c3)n2)ccc1OCCO (stereo not drawn) [Compound 184] |  |  |  | < 1 µM | < 1 µM | < 1 µM |
| COc1cc(C(=O)NCC(O)(c2ccc(OC)c(-c3ccc(F)c(Cl)c3)n2)c2cnn(C)n2)ccc1OCCO (stereo not drawn) [Compound 198] | < 1 µM | < 1 µM | < 1 µM |  |  |  |
| CC(C)(N)c1cc(-c2ccc(F)c(Cl)c2)nc(C(O)(CNC(=O)c2ccc3c(c2)OCCO3)C(F)(F)F)c1 (stereo not drawn) [Compound 273] | < 1 µM | < 1 µM | < 1 µM |  |  |  |
| CC(C)(N)c1cc(-c2ccc(F)c(Cl)c2)nc(C(O)(CNC(=O)c2ccc3c(c2)OC(F)(F)O3)C(F)(F)F)c1 (stereo not drawn) [Compound 275] | 1 to 50 µM | < 1 µM | < 1 µM |  |  |  |
| CC(C)(N)c1cc(-c2ccc(F)c(Cl)c2)nc(C(O)(CNC(=O)c2ccc(OC3CCNC3=O)c(Cl)c2)C(F)(F)F)c1 (stereo not drawn) [Compound 281] | < 1 µM | < 1 µM | < 1 µM |  |  |  |
| CC(C)(N)c1cc(-c2ccc(F)c(Cl)c2)nc(C(O)(CNC(=O)c2ccc(OC3CC3)c(Cl)c2)C(F)(F)F)c1 (stereo not drawn) [Compound 282] | < 1 µM | < 1 µM | < 1 µM |  |  |  |
| COc1cc(C(=O)NCC(O)(c2cc(C(C)(C)N)cc(-c3ccc(F)c(Cl)c3)n2)C(F)(F)F)ccc1OC1CC1 (stereo not drawn) [Compound 314] | < 1 µM | < 1 µM | < 1 µM |  |  |  |
| COc1cc(C(=O)NCC(O)(c2cc(C(C)(C)N)cc(-c3ccc(F)c(Cl)c3)n2)C(F)(F)F)ccc1OC1CC(F)C1 (stereo not drawn) [Compound 323] | < 1 µM | < 1 µM | < 1 µM |  |  |  |
| COc1cc(C(=O)NCC(O)(c2cc(C(C)(C)N)cc(-c3ccc(F)c(Cl)c3)n2)C(F)(F)F)ccc1OC1CC1(F)F (stereo not drawn) [Compound 324] | < 1 µM | < 1 µM | < 1 µM |  |  |  |
| COc1cc(C(=O)NCC(O)(c2cc(C(C)(C)N)cc(-c3ccc(F)c(Cl)c3)n2)C(F)(F)F)ccc1OCC(F)(F)F (stereo not drawn) [Compound 325] | < 1 µM | < 1 µM | < 1 µM |  |  |  |
| COc1cc(C(=O)NCC(O)(c2ccc(OC)c(-c3ccc(F)c(Cl)c3)n2)C(F)(F)F)ccc1OC(C)C (stereo not drawn) [Compound 378] |  | < 1 µM | 1 to 50 µM |  |  |  |
| COc1cc(C(=O)NCC(C)(O)c2ccc(OC)c(-c3ccc(F)c(Cl)c3)n2)ccc1OCS(C)(=O)=O (stereo not drawn) [Compound 379] |  | < 1 µM | < 1 µM |  |  |  |
| COc1ccc(C(O)(CNC(=O)c2ccc(OCC(N)=O)c(F)c2)C(F)(F)F)nc1-c1ccc(F)c(Cl)c1 (stereo not drawn) [Compound 380] |  | < 1 µM | < 1 µM |  |  |  |
| CCNCc1cc(-c2ccc(F)cc2)nc(C(O)(CNC(=O)c2ccc(OC3CC3)c(OC)c2)C(F)(F)F)c1 (stereo not drawn) [Compound 389] |  | < 1 µM | < 1 µM |  |  |  |
| CCNC(C)(C)c1cc(-c2ccc(F)c(Cl)c2)nc(C(O)(CNC(=O)c2ccc(OC3CC3)c(OC)c2)C(F)(F)F)c1 (stereo not drawn) [Compound 390] |  | < 1 µM | < 1 µM |  |  |  |
| CNC(C)(C)c1cc(-c2ccc(F)cc2)nc(C(O)(CNC(=O)c2ccc(OC3CC3)c(OC)c2)C(F)(F)F)c1 (stereo not drawn) [Compound 393] |  | < 1 µM | < 1 µM |  |  |  |
| CNC(C)(C)c1cc(-c2ccc(F)c(Cl)c2)nc(C(O)(CNC(=O)c2ccc(OC3CC3)c(OC)c2)C(F)(F)F)c1 (stereo not drawn) [Compound 394] | < 1 µM | < 1 µM | < 1 µM |  |  |  |
| COc1cc(C(=O)NCC(O)(c2cc(C(C)(C)N)cc(-c3ccc(F)c(Cl)c3)n2)C(F)(F)F)ccc1OCC(F)F (stereo not drawn) [Compound 395] |  | < 1 µM | < 1 µM |  |  |  |
| COc1cc(C(=O)NCC(O)(c2cc(C(C)(C)CN)cc(-c3ccc(F)c(Cl)c3)n2)C(F)(F)F)ccc1OC1CC1 (stereo not drawn) [Compound 397] |  | < 1 µM | < 1 µM |  |  |  |
| COc1cc(C(=O)NCC(O)(c2ccc(OC)c(-c3ccc(F)c(Cl)c3)n2)C2CC2)ccc1OCC(N)=O (stereo not drawn) [Compound 398] |  | < 1 µM | < 1 µM |  |  |  |
| CCOc1ccc(C(=O)NCC(O)(c2cc3c(c(-c4ccc(F)c(Cl)c4)n2)OCC3(C)N)C(F)(F)F)cc1Cl (stereo not drawn) [Compound 494] | < 1 µM | < 1 µM | < 1 µM |  |  |  |
| COc1cc(C(=O)NCC(O)(c2cc(C(C)(C)NC(=O)CN)cc(-c3ccc(F)c(Cl)c3)n2)C(F)(F)F)ccc1OC1CC1 (stereo not drawn) [Compound 497] | < 1 µM | < 1 µM | < 1 µM |  |  |  |

| Compound | EC50 [1, 2] | IC50 (recombinant RSV complex) | EC50 (RSV replicon; [3]) | EC50 ([1]; read-out: 50% effective concentration (EC50), HEp-2 cells infected with RSV long strain, 5 days, CCK-8 readout) | IC50 (recombinant RSV complex; read-out: IC50 (compound concentration at which the enzyme-catalyzed rate was reduced by 50%), 10 nM recombinant RSV complex, 2 h at 30° C., Tables E, F and G list compounds by IC50 band) | EC50 (RSV replicon; RSV replicon, 395 HeLa or APC126 cells, value given by membership in Table H / Table I) |
| --- | --- | --- | --- | --- | --- | --- |
| COc1cc(C(=O)NCC(O)(c2cc3c(c(-c4ccc(F)c(Cl)c4)n2)OCC3(C)NCCN)C(F)(F)F)ccc1OC1CC1 (stereo not drawn) [Compound 499] | < 1 µM | < 1 µM | < 1 µM |  |  |  |
| COCCNC(C)(C)c1cc(-c2ccc(F)c(Cl)c2)nc(C(O)(CNC(=O)c2ccc(OC3CC3)c(OC)c2)C(F)(F)F)c1 (stereo not drawn) [Compound 505] | < 1 µM | < 1 µM | < 1 µM |  |  |  |
| COc1cc(C(=O)NCC(O)(c2cc(C3(C)CCN(C)C3)cc(-c3ccc(F)cc3)n2)C(F)(F)F)ccc1OC1CC1 (stereo not drawn) [Compound 506] |  | < 1 µM | < 1 µM |  |  |  |
| COc1cc(C(=O)NCC(O)(c2cc3c(c(-c4ccc(F)cc4)n2)OCC3(C)N)C(F)(F)F)ccc1OC1CC1 (stereo not drawn) [Compound 509] |  | < 1 µM | < 1 µM |  |  |  |
| COc1cc(C(=O)NCC(O)(c2cc(C(C)(C)N)cc(-c3ccc(C(F)(F)F)cc3)n2)C(F)(F)F)ccc1OC1CC1 (stereo not drawn) [Compound 523] |  | < 1 µM | < 1 µM |  |  |  |
| COc1cc(C(=O)NCC(O)(c2cc(C(C)(C)N)cc(-c3ccc(F)c(Br)c3)n2)C(F)(F)F)ccc1OC1CC1 (stereo not drawn) [Compound 524] |  | < 1 µM | < 1 µM |  |  |  |
| COc1cc(C(=O)NCC(O)(c2cc(C3(O)CNC3)cc(-c3ccc(F)c(Cl)c3)n2)C(F)(F)F)ccc1OC1CC1 (stereo not drawn) [Compound 555] |  | < 1 µM | < 1 µM |  |  |  |
| COc1cc(C(=O)NCC(O)(c2cc(C3(C)CC(O)C3)cc(-c3ccc(F)c(Cl)c3)n2)C(F)(F)F)ccc1OC1CC1 (stereo not drawn) [Compound 564] |  | < 10 µM | < 1 µM |  |  |  |
| COc1cc(C(=O)NCC(O)(c2cc(C(C)(C)N)cc(-c3ccc(Cl)nc3)n2)C(F)(F)F)ccc1OC1CC1 (stereo not drawn) [Compound 567] |  | < 1 µM | < 1 µM |  |  |  |
| COc1cc(C(=O)NCC(O)(c2cc(C(C)(C)N)cc(-c3ccc(F)c(Cl)c3)n2)C(F)(F)F)ccc1OCC(C)OC(=O)OC(C)C (stereo not drawn) [Compound 572] |  | < 10 µM | < 1 µM |  |  |  |
| COc1cc(C(=O)NCC(O)(c2cc(C3CCNCC3)cc(-c3ccc(F)c(Cl)c3)n2)C(F)(F)F)ccc1OC1CC1 (stereo not drawn) [Compound 576] |  | < 1 µM | < 1 µM |  |  |  |
| COc1cc(C(=O)NCC(O)(c2cc(C(C)(C)NC3COC3)cc(-c3ccc(F)cc3)n2)C(F)(F)F)ccc1OC1CC1 (stereo not drawn) [Compound 581] |  | < 1 µM | < 1 µM |  |  |  |
| COc1cc(C(=O)NCC(O)(c2cc(C3(C)CN(C(C)C)C3)cc(-c3ccc(F)cc3)n2)C(F)(F)F)ccc1OCCO (stereo not drawn) [Compound 584] |  | < 1 µM | < 1 µM |  |  |  |
| COc1cc(C(=O)NCC(O)(c2cc(C(C)(N)CO)cc(-c3ccc(F)cc3)n2)C(F)(F)F)ccc1OC1CC1 (stereo not drawn) [Compound 600] |  | < 1 µM | < 1 µM |  |  |  |
| COc1cc(C(=O)NCC(O)(c2cc(C(C)(C)NC(C)=O)cc(-c3ccc(F)c(Cl)c3)n2)C(F)(F)F)ccc1OC[C@@H](C)O (stereo partly drawn) [Compound 601] |  | < 1 µM | < 1 µM |  |  |  |
| COc1cc(C(=O)NCC(C)(O)c2cc(C(C)(C)N)cc(-c3ccc(F)cc3)n2)ccc1OCC(N)=O (stereo not drawn) [Compound 602] |  | < 1 µM | < 1 µM |  |  |  |
| COc1cc(C(=O)NCC(O)(c2cc([C@]3(C)CCN3)cc(-c3ccc(F)c(Cl)c3)n2)C(F)(F)F)ccc1OC1CC1 (stereo partly drawn) [Compound 603] |  | < 1 µM | < 1 µM |  |  |  |
| COC(=O)C(C)(N)c1cc(-c2ccc(F)cc2)nc(C(O)(CNC(=O)c2ccc(OC3CC3)c(OC)c2)C(F)(F)F)c1 (stereo not drawn) [Compound 622] |  | < 1 µM | < 1 µM |  |  |  |
| COc1cc(C(=O)NCC(O)(c2cc(C(C)(C)N)cc(-c3ccc(F)cc3)n2)C(F)(F)F)ccc1OC/C(N)=N/O (stereo not drawn) [Compound 636] |  | < 1 µM | < 1 µM |  |  |  |
| COc1cc(C(=O)NCC(F)(c2cc(C(C)(C)N)cc(-c3ccc(F)c(Cl)c3)n2)C(F)(F)F)ccc1OC1CC1 (stereo not drawn) [Compound 641] |  | < 1 µM | < 1 µM |  |  |  |
| COc1cc(C(=O)NCC(O)(c2cc3c(c(-c4c[nH]c5c(F)cccc45)n2)OCC3(C)N)C(F)(F)F)ccc1OCCO (stereo not drawn) [Compound 647] |  | < 1 µM | < 1 µM |  |  |  |
| COc1cc(C(=O)NCC(O)(c2cc3c(c(-c4ccc(Br)cc4)n2)OCC3(C)N)C(F)(F)F)ccc1OCCO (stereo not drawn) [Compound 651] |  | < 1 µM | < 1 µM |  |  |  |
| COc1cc(-c2cc(C(C)(C)N)cc(C(O)(CNC(=O)c3ccc(OCCO)c(OC)c3)C(F)(F)F)n2)ccn1 (stereo not drawn) [Compound 659] |  | < 10 µM | < 1 µM |  |  |  |
